In patent US20100267561A1, “HERBICIDAL PYRIDAZINONE DERIVATIVES” (priority 2007, published 2010):

How the values were obtained:
Format in all cases: in vivo
[1] = test system: velvetleaf (Abutilon theophrasti); test: Test A pre-/postemergence plant response
Text: (§1) Seeds of species selected from barnyardgrass (Echinochloa crus-galli), large crabgrass (Digitaria sanguinalis), giant foxtail (Setaria faberi), blackgrass (Alopecurus myosuroides), canarygrass (Phalaris minor), morningglory (Ipomoea coccinea), pigweed (Amaranthus retroflexus), velvetleaf (Abutilon theophrasti), wheat (Triticum aestivum), and corn (Zea mays) were planted into a blend of loam soil and sand and treated preemergence with a directed soil spray using test chemicals formulated in a non-phytotoxic solvent mixture which included a surfactant. At the same time these species were also treated with postemergence applications of test chemicals formulated in the same manner.
(§2) Plants ranged in height from 2 to 10 cm and were in the one- to two-leaf stage for the postemergence treatment. Treated plants and untreated controls were maintained in a greenhouse for approximately 10 days, after which time all treated plants were compared to untreated controls and visually evaluated for injury. Plant response ratings, summarized in Table A, are based on a 0 to 100 scale where 0 is no effect and 100 is complete control. A dash (-) response means no test results.

[2] = test system: pigweed (Amaranthus retroflexus); test: Test A pre-/postemergence plant response
Text: as §1, §2

[3] = test system: corn (Zea mays); test: Test A pre-/postemergence plant response
Text: as §1, §2

[4] = test system: wheat (Triticum aestivum); test: Test A pre-/postemergence plant response
Text: as §1, §2

[5] = test system: giant foxtail (Setaria faberi); test: Test A pre-/postemergence plant response
Text: as §1, §2

[6] = test system: morningglory (Ipomoea coccinea); test: Test A pre-/postemergence plant response
Text: as §1, §2

[7] = test system: large crabgrass (Digitaria sanguinalis); test: Test A pre-/postemergence plant response
Text: as §1, §2

[8] = test system: barnyardgrass (Echinochloa crus-galli); test: Test A pre-/postemergence plant response
Text: as §1, §2

[9] = test system: umbrella sedge (Cyperus difformis); test: Test B flooded paddy test plant response
Text: (§3) Plant species in the flooded paddy test consisted of rice (Oryza sativa), umbrella sedge (Cyperus difformis), ducksalad (Heteranthera limosa) and barnyardgrass (Echinochloa crus-galli) grown to the 2-leaf stage for testing. At time of treatment, test pots were flooded to 3 cm above the soil surface, treated by application of test compounds directly to the paddy water, and then maintained at that water depth for the duration of the test. Treated plants and controls were maintained in a greenhouse for 13 to 15 days, after which time all species were compared to controls and visually evaluated. Plant response ratings, summarized in Table B, are based on a scale of 0 to 100 where 0 is no effect and 100 is complete control. A dash (-) response means no test result.

[10] = test system: rice (Oryza sativa); test: Test B flooded paddy test plant response
Text: as §3

[11] = test system: barnyardgrass (Echinochloa crus-galli); test: Test B flooded paddy test plant response
Text: as §3

[12] = test system: ducksalad (Heteranthera limosa); test: Test B flooded paddy test plant response
Text: as §3

[13] = Postemergence, 125 g ai/ha, 0 to 100 scale, 0 no effect, 100 complete control
[14] = Postemergence, 500 g ai/ha, 0 to 100 scale, 0 no effect, 100 complete control
[15] = Preemergence, 125 g ai/ha, 0 to 100 scale (0 no effect, 100 complete control)
[16] = Preemergence, 500 g ai/ha, 0 to 100 scale (0 no effect, 100 complete control)
[17] = Flood (flooded paddy test), 62 g ai/ha, scale 0 to 100, 0 no effect, 100 complete control
[18] = Flood (flooded paddy test), 125 g ai/ha, scale 0 to 100, 0 no effect, 100 complete control
[19] = Flood (flooded paddy test), 250 g ai/ha, scale 0 to 100, 0 no effect, 100 complete control
[20] = Flood, 31 g ai/ha, scale 0 to 100
[21] = Postemergence, 62 g ai/ha, 0 to 100 scale, 0 no effect, 100 complete control
[22] = Postemergence, 250 g ai/ha, 0 to 100 scale, 0 no effect, 100 complete control
[23] = Preemergence, 62 g ai/ha, 0 to 100 scale, 0 no effect, 100 complete control
[24] = Preemergence, 250 g ai/ha, 0 to 100 scale (0 no effect, 100 complete control)

Cc1nn(-c2ccc(Cl)cc2)cc1-c1c(O)cnn(C)c1=O [Compound 29]
Plant response rating, Velvetleaf [1, 13]: 0
Plant response rating, Velvetleaf [1, 14]: 0
Plant response rating, Velvetleaf [1, 15]: 0
Plant response rating, Velvetleaf [1, 16]: 0
Plant response rating, Pigweed [2, 13]: 0
Plant response rating, Pigweed [2, 14]: 0
Plant response rating, Pigweed [2, 15]: 0
Plant response rating, Pigweed [2, 16]: 0
Plant response rating, Corn [3, 13]: 0
Plant response rating, Corn [3, 14]: 0
Plant response rating, Corn [3, 15]: 0
Plant response rating, Corn [3, 16]: 0
Plant response rating, Wheat [4, 13]: 0
Plant response rating, Wheat [4, 14]: 20
Plant response rating, Wheat [4, 15]: 0
Plant response rating, Wheat [4, 16]: 0
Plant response rating, Foxtail, Giant [5, 13]: 0
Plant response rating, Foxtail, Giant [5, 14]: 80
Plant response rating, Foxtail, Giant [5, 15]: 60
Plant response rating, Foxtail, Giant [5, 16]: 100
Plant response rating, Morningglory [6, 13]: 0
Plant response rating, Morningglory [6, 14]: 0
Plant response rating, Morningglory [6, 15]: 0
Plant response rating, Morningglory [6, 16]: 0
Plant response rating, Crabgrass, Large [7, 13]: 0
Plant response rating, Crabgrass, Large [7, 14]: 50
Plant response rating, Crabgrass, Large [7, 15]: 0
Plant response rating, Crabgrass, Large [7, 16]: 40
Plant response rating, Barnyardgrass [8, 13]: 10
Plant response rating, Barnyardgrass [8, 14]: 50
Plant response rating, Barnyardgrass [8, 15]: 0
Plant response rating, Barnyardgrass [8, 16]: 70
Plant response rating, Sedge, Umbrella [9, 17]: 0
Plant response rating, Sedge, Umbrella [9, 18]: 0
Plant response rating, Sedge, Umbrella [9, 19]: 0
Plant response rating, Sedge, Umbrella [9, 20]: 0
Plant response rating, Rice [10, 17]: 0
Plant response rating, Rice [10, 18]: 0
Plant response rating, Rice [10, 19]: 0
Plant response rating, Rice [10, 20]: 0
Plant response rating, Barnyardgrass [11, 17]: 0
Plant response rating, Barnyardgrass [11, 18]: 0
Plant response rating, Barnyardgrass [11, 19]: 0
Plant response rating, Barnyardgrass [11, 20]: 0
Plant response rating, Ducksalad [12, 17]: 0
Plant response rating, Ducksalad [12, 18]: 0
Plant response rating, Ducksalad [12, 19]: 0
Plant response rating, Ducksalad [12, 20]: 0

Cc1cc(-c2ccc(OC(F)(F)F)cc2)nn1-c1c(OC(=O)OC(C)C)cnn(C)c1=O [Compound 13]
Plant response rating, Velvetleaf [1, 13]: 0
Plant response rating, Velvetleaf [1, 14]: 0
Plant response rating, Velvetleaf [1, 15]: 0
Plant response rating, Velvetleaf [1, 16]: 20
Plant response rating, Pigweed [2, 13]: 0
Plant response rating, Pigweed [2, 14]: 0
Plant response rating, Pigweed [2, 15]: 0
Plant response rating, Pigweed [2, 16]: 0
Plant response rating, Corn [3, 13]: 30
Plant response rating, Corn [3, 14]: 60
Plant response rating, Corn [3, 15]: 20
Plant response rating, Corn [3, 16]: 70
Plant response rating, Wheat [4, 13]: 50
Plant response rating, Wheat [4, 14]: 60
Plant response rating, Wheat [4, 15]: 20
Plant response rating, Wheat [4, 16]: 70
Plant response rating, Foxtail, Giant [5, 13]: 70
Plant response rating, Foxtail, Giant [5, 14]: 80
Plant response rating, Foxtail, Giant [5, 15]: 70
Plant response rating, Foxtail, Giant [5, 16]: 100
Plant response rating, Morningglory [6, 13]: 0
Plant response rating, Morningglory [6, 14]: 0
Plant response rating, Morningglory [6, 15]: 0
Plant response rating, Morningglory [6, 16]: 0
Plant response rating, Crabgrass, Large [7, 13]: 20
Plant response rating, Crabgrass, Large [7, 14]: 80
Plant response rating, Crabgrass, Large [7, 15]: 60
Plant response rating, Crabgrass, Large [7, 16]: 90
Plant response rating, Barnyardgrass [8, 13]: 50
Plant response rating, Barnyardgrass [8, 14]: 90
Plant response rating, Barnyardgrass [8, 15]: 60
Plant response rating, Barnyardgrass [8, 16]: 100
Plant response rating, Sedge, Umbrella [9, 17]: 0
Plant response rating, Sedge, Umbrella [9, 18]: 0
Plant response rating, Sedge, Umbrella [9, 19]: 0
Plant response rating, Sedge, Umbrella [9, 20]: 0
Plant response rating, Rice [10, 17]: 0
Plant response rating, Rice [10, 18]: 0
Plant response rating, Rice [10, 19]: 0
Plant response rating, Rice [10, 20]: 0
Plant response rating, Barnyardgrass [11, 17]: 0
Plant response rating, Barnyardgrass [11, 18]: 0
Plant response rating, Barnyardgrass [11, 19]: 0
Plant response rating, Barnyardgrass [11, 20]: 0
Plant response rating, Ducksalad [12, 17]: 0
Plant response rating, Ducksalad [12, 18]: 0
Plant response rating, Ducksalad [12, 19]: 0
Plant response rating, Ducksalad [12, 20]: 0

COc1ccc(-c2cc(C)n(-c3c(O)cnn(C)c3=O)n2)cc1 [Compound 62]
Plant response rating, Velvetleaf [1, 13]: 0
Plant response rating, Velvetleaf [1, 14]: 0
Plant response rating, Velvetleaf [1, 15]: 0
Plant response rating, Velvetleaf [1, 16]: 0
Plant response rating, Pigweed [2, 13]: 0
Plant response rating, Pigweed [2, 14]: 0
Plant response rating, Pigweed [2, 15]: 0
Plant response rating, Pigweed [2, 16]: 0
Plant response rating, Corn [3, 13]: 0
Plant response rating, Corn [3, 14]: 40
Plant response rating, Corn [3, 15]: 0
Plant response rating, Corn [3, 16]: 20
Plant response rating, Wheat [4, 13]: 0
Plant response rating, Wheat [4, 14]: 20
Plant response rating, Wheat [4, 15]: 0
Plant response rating, Wheat [4, 16]: 0
Plant response rating, Foxtail, Giant [5, 13]: 40
Plant response rating, Foxtail, Giant [5, 14]: 60
Plant response rating, Foxtail, Giant [5, 15]: 0
Plant response rating, Foxtail, Giant [5, 16]: 30
Plant response rating, Morningglory [6, 13]: 0
Plant response rating, Morningglory [6, 14]: 0
Plant response rating, Morningglory [6, 15]: 0
Plant response rating, Morningglory [6, 16]: 0
Plant response rating, Crabgrass, Large [7, 13]: 50
Plant response rating, Crabgrass, Large [7, 14]: 90
Plant response rating, Crabgrass, Large [7, 15]: 20
Plant response rating, Crabgrass, Large [7, 16]: 60
Plant response rating, Barnyardgrass [8, 13]: 40
Plant response rating, Barnyardgrass [8, 14]: 100
Plant response rating, Barnyardgrass [8, 15]: 10
Plant response rating, Barnyardgrass [8, 16]: 90
Plant response rating, Sedge, Umbrella [9, 17]: 0
Plant response rating, Sedge, Umbrella [9, 18]: 0
Plant response rating, Sedge, Umbrella [9, 19]: 0
Plant response rating, Sedge, Umbrella [9, 20]: 0
Plant response rating, Rice [10, 17]: 0
Plant response rating, Rice [10, 18]: 0
Plant response rating, Rice [10, 19]: 0
Plant response rating, Rice [10, 20]: 0
Plant response rating, Barnyardgrass [11, 17]: 0
Plant response rating, Barnyardgrass [11, 18]: 0
Plant response rating, Barnyardgrass [11, 19]: 0
Plant response rating, Barnyardgrass [11, 20]: 0
Plant response rating, Ducksalad [12, 17]: 0
Plant response rating, Ducksalad [12, 18]: 0
Plant response rating, Ducksalad [12, 19]: 0
Plant response rating, Ducksalad [12, 20]: 0

CCc1cc(-c2ccc(C(F)(F)F)cc2)nn1-c1c(OC(=O)C(C)(C)C)cnn(C)c1=O [Compound 18]
Plant response rating, Velvetleaf [1, 21]: 0
Plant response rating, Velvetleaf [1, 22]: 0
Plant response rating, Velvetleaf [1, 23]: 0
Plant response rating, Velvetleaf [1, 24]: 0
Plant response rating, Pigweed [2, 21]: 0
Plant response rating, Pigweed [2, 22]: 0
Plant response rating, Pigweed [2, 23]: 0
Plant response rating, Pigweed [2, 24]: 0
Plant response rating, Corn [3, 21]: 80
Plant response rating, Corn [3, 22]: 90
Plant response rating, Corn [3, 23]: 90
Plant response rating, Corn [3, 24]: 90
Plant response rating, Wheat [4, 21]: 70
Plant response rating, Wheat [4, 22]: 80
Plant response rating, Wheat [4, 23]: 90
Plant response rating, Wheat [4, 24]: 100
Plant response rating, Foxtail, Giant [5, 21]: 90
Plant response rating, Foxtail, Giant [5, 22]: 100
Plant response rating, Foxtail, Giant [5, 23]: 100
Plant response rating, Foxtail, Giant [5, 24]: 100
Plant response rating, Morningglory [6, 21]: 0
Plant response rating, Morningglory [6, 22]: 0
Plant response rating, Morningglory [6, 23]: 0
Plant response rating, Morningglory [6, 24]: 0
Plant response rating, Crabgrass, Large [7, 21]: 80
Plant response rating, Crabgrass, Large [7, 22]: 100
Plant response rating, Crabgrass, Large [7, 23]: 100
Plant response rating, Crabgrass, Large [7, 24]: 100
Plant response rating, Barnyardgrass [8, 21]: 90
Plant response rating, Barnyardgrass [8, 22]: 100
Plant response rating, Barnyardgrass [8, 23]: 100
Plant response rating, Barnyardgrass [8, 24]: 100
